Data taken from US20200101176A1, “Small Highly Uniform Nanomedicine Compositions for Therapeutic, Imaging and Theranostic Applications” (THE REGENTS OF THE UNIVERSITY OF MICHIGAN, priority 2018, published 2020).

System: myocytes
Assay: PDT of heart tissue, cell death tracked by PI fluorescence
Settings: in vivo
Text: PI fluorescence is only from myocytes.
FIG. 25 are images showing an embodiment of a non-targeted PDT with Ce6, in accordance with the present inventions.
Turning to FIG. 15, there is shown that PI (a nuclear stain for dead cells) is only present in myocytes (3 different magnified areas).
Turning to FIG. 16, there is shown similar tissue sampling test as FIG. 15, but using non-targeted PDT.

Substance: chlorin e6 [Ce6]
- damage to vasculature / non-target cells after PDT (PI fluorescence): vasculature damage
- damage to vasculature / non-target cells after PDT (PI fluorescence) (listed as untargeted Ce6): kills everything
